Laboratory results published in patent US11691970B2, “Pyrazolopyridinone compounds” (Janssen Pharmaceutica NV, priority 2017, dated 2023).

Assays:
[1] = biological target: T1, human FGFR3 wild type enzyme (cytoplasmic domain) (Homo sapiens, UniProt P22607); test: FGFR3 wild type mobility shift assay (enzymatic assay); type: biochemical; details: 75 μM ATP, 50 minutes at 30° C, Caliper EZ reader II
T1 construct: human FGFR3 wild type enzyme (cytoplasmic domain, from Carna Biosciences); purchased Carna Biosciences
T1 sequence (P22607 397-806 limits assumed): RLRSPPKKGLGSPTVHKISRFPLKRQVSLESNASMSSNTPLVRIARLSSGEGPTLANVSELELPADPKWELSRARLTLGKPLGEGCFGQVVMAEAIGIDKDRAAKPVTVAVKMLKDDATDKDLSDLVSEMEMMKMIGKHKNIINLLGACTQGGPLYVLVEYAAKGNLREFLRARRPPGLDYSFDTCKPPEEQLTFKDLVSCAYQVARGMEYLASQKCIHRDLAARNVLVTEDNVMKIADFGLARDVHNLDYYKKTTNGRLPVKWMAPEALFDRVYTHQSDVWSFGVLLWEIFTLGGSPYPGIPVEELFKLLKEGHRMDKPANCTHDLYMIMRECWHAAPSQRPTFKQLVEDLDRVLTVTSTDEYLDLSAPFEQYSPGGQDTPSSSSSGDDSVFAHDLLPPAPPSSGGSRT
Source text: FGFR3 Wild Type Mobility Shift Assay (Enzymatic Assay)

[2] = tested on: NIH/3T3 cells transfected with control vector; test: NIH/3T3 mock cell proliferation assay (counter assay, CellTiter Glo); type: cell-based; details: Mus musculus, NIH3T3, 72 h, 72-hr incubation, top concentration 30 μM, counter assay for general toxicity, read-out: NIH/3T3 MOCK CTG (IC50)
Protocol: NIH/3T3 Mock Cell Proliferation Assay
In day 1, 90 μL of cell suspension (NIH/3T3 cells transfected with the same control vector as in the above two proliferation assays) (total 30,000 cells per well in growth medium (DMEM containing 1% Glutamax, 10% FBS and 1% Pen/Strep)) was seeded in a 96-well plate and then incubated overnight at 37° C. and 5% CO2. In day 2, 10 μL of growth medium containing 10-fold stock solution of testing compound was added into cell cultures (9 dose points with 3× serial dilution, starting with 30 μM, 0.3% DMSO final). After 72-hr incubation at 37° C. and 5% CO2, in day 5 a volume of 50 μL CellTiter Glo (CTG) reagent was added into cell-containing 96-well plate and the plate was incubated at room temperature for 10 minutes before RLUs (relative light unit) were measured on a microplate reader with luminescence detection module.

[3] = biological target: T2, NIH/3T3 cells overexpressing FGFR3 WT-TACC3 fusion protein (Homo sapiens, UniProt P22607); test: NIH/3T3 FGFR3 WT-TACC3 cell proliferation assay (CellTiter Glo); type: cell-based; details: 72-hr incubation, top concentration 10 μM, read-out: NIH/3T3 FGFR3 WT-TACC3 CTG (IC50)
T2 construct: NIH/3T3 FGFR3 WT-TACC3 CTG (IC50); other: 72-hr incubation, CellTiter Glo, top concentration 10 μM; fused on or other part: Q9Y6A5 (Transforming acidic coiled-coil-containing protein 3)
T2 sequence (P22607 whole entry, change not shown, the tested form may be a part): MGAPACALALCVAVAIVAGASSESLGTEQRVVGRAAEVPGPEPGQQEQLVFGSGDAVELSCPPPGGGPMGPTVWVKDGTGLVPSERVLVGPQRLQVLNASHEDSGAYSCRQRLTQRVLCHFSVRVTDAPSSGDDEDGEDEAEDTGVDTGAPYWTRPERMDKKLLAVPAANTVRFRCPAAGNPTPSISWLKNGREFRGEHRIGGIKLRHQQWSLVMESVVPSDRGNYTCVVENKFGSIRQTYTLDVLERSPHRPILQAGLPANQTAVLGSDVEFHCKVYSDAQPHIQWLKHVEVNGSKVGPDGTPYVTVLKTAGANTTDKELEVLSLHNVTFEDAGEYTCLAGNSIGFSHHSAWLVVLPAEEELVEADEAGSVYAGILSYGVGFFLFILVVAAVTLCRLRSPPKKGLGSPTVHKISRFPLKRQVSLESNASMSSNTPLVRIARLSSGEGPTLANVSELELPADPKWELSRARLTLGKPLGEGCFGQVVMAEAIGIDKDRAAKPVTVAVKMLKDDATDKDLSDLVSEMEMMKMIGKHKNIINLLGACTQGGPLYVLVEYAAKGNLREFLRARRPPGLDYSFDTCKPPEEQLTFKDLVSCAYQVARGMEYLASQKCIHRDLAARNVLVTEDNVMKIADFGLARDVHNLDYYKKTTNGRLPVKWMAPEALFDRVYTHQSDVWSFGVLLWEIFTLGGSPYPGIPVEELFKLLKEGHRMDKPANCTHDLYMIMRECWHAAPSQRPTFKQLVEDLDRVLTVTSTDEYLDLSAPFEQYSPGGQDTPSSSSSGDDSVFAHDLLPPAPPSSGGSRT
Protocol: NIH/3T3 FGFR3 WT-TACC3 Cell Proliferation Assay
In day 1, 90 μL of cell suspension (NIH/3T3 cells overexpressing FGFR3 WT-TACC3 fusion protein) (total 30,000 cells per well in growth medium (DMEM containing 1% Glutamax, 10% FBS and 1% Pen/Strep)) was seeded in a 96-well plate and then incubated overnight at 37° C. and 5% CO2. […] After 72-hr incubation at 37° C. and 5% CO2, in day 5 a volume of 50 μL CellTiter Glo (CTG) reagent was added into cell-containing 96-well plate and the plate was incubated at room temperature for 10 minutes before RLUs (relative light unit) were measured on a microplate reader with luminescence detection module.

## CC(Nc1c(-c2nc3ccc(C4CCOCC4)cc3[nH]2)c(=O)[nH]c2cn(C)nc12)c1ncccn1 (single isomer, unassigned) [Compound 22, (S*)-2-methyl-7-((1-(pyrimidin-2-yl)ethyl)amino)-6-(6-(tetrahydro-2H-pyran-4-yl)-1H-benzo[d]imidazol-2-yl)-2H-pyrazolo[4,3-b]pyridin-5(4H)-one]
[1]
  IC50: 0.377 nM
[2]
  IC50: 1080 nM
[3]
  GI50: 18.1 nM

## Cc1c(N2CCOCC2)ccc2nc(-c3c(NC(C)c4ncccn4)c4nn(C)cc4[nH]c3=O)[nH]c12 (single isomer, unassigned) [Compound 28, (S*)-2-methyl-6-(7-methyl-6-morpholino-1H-benzo[d]imidazol-2-yl)-7-((1-(pyrimidin-2-yl)ethyl)amino)-2H-pyrazolo[4,3-b]pyridin-5(4H)-one]
[1]
  IC50: 0.939 nM
[2]
  IC50: 2070 nM
[3]
  GI50: 10 nM

## CCn1cc2[nH]c(=O)c(-c3nc4ccc(N5CCOCC5)cc4[nH]3)c(N[C@@H](C)c3ncccn3)c2n1 [Compound 46, (S)-2-ethyl-6-(6-morpholino-1H-benzo[d]imidazol-2-yl)-7-((1-(pyrimidin-2-yl)ethyl)-amino)-2H-pyrazolo[4,3-b]pyridin-5(4H)-one]
[1]
  IC50: 0.891 nM
[2]
  IC50: 1070 nM
[3]
  GI50: 13.2 nM

## CCn1cc2[nH]c(=O)c(-c3nc4c(F)cc(N5CCN(C)CC5)cc4[nH]3)c(N[C@@H](C)c3ncccn3)c2n1 [Compound 48, (S)-2-ethyl-6-(4-fluoro-6-(4-methylpiperazin-1-yl)-1H-benzo[d]imidazol-2-yl)-7-((1-(pyrimidin-2-yl)ethyl)amino)-2H-pyrazolo[4,3-b]pyridin-5(4H)-one]
[1]
  IC50: 0.738 nM
[2]
  IC50: 352 nM
[3]
  GI50: 9.04 nM

## CC(C)C(Nc1c(-c2nc3cnc(N4CCN(C)CC4)cc3[nH]2)c(=O)[nH]c2cn(C)nc12)c1ncccn1 (single isomer, unassigned) [Compound 23, (S*)-2-methyl-7-((2-methyl-1-(pyrimidin-2-yl)propyl)amino)-6-(6-(4-methylpiperazin-1-yl)-1H-imidazo[4,5-c]pyridin-2-yl)-2H-pyrazolo[4,3-b]pyridin-5(4H)-one]
[1]
  IC50: 0.979 nM
[2]
  IC50: 266 nM
[3]
  GI50: 34.6 nM

## CC(Nc1c(-c2nc3ccc(N4CCOCC4)c(F)c3[nH]2)c(=O)[nH]c2cn(C)nc12)c1ncccn1 (single isomer, unassigned) [Compound 14, (S*)-6-(7-fluoro-6-morpholino-1H-benzo[d]imidazol-2-yl)-2-methyl-7-((1-(pyrimidin-2-yl)ethyl)amino)-2H-pyrazolo[4,3-b]pyridin-5(4H)-one]
[1]
  IC50: 1.9 nM
[2]
  IC50: 424 nM
[3]
  GI50: 4.06 nM

## CCC(Nc1c(-c2nc3ccc(N4CCOCC4)cc3[nH]2)c(=O)[nH]c2cn(C)nc12)c1ncccn1 (single isomer, unassigned) [Compound 39, (S*)-2-methyl-6-(6-morpholino-1H-benzo[d]imidazol-2-yl)-7-((1-(pyrimidin-2-yl)-propyl)amino)-2H-pyrazolo[4,3-b]pyridin-5(4H)-one]
[1]
  IC50: 0.881 nM
[2]
  IC50: 458 nM
[3]
  GI50: 16.3 nM

## CC(Nc1c(-c2nc3ccc(OC4CCOCC4)cc3[nH]2)c(=O)[nH]c2cn(C)nc12)c1cocn1 (single isomer, unassigned) [Compound 36, (S*)-2-methyl-7-((1-(oxazol-4-yl)ethyl)amino)-6-(6-((tetrahydro-2H-pyran-4-yl)oxy)-1H-benzo[d]imidazol-2-yl)-2H-pyrazolo[4,3-b]pyridin-5(4H)-one]
[1]
  IC50: 0.839 nM
[2]
  IC50: 753 nM
[3]
  GI50: 49.6 nM

## C[C@H](Nc1c(-c2nc3ccc(N4CCCCC4=O)c(F)c3[nH]2)c(=O)[nH]c2cn(C)nc12)c1ncccn1 [Compound 27, (S)-6-(7-fluoro-6-(2-oxopiperidin-1-yl)-1H-benzo[d]imidazol-2-yl)-2-methyl-7-((1-(pyrimidin-2-yl)ethyl)amino)-2H-pyrazolo[4,3-b]pyridin-5(4H)-one]
[1]
  IC50: 0.61 nM
[2]
  IC50: 1370 nM
[3]
  GI50: 99.9 nM
